Values quoted from earlier work in US20080200497A1, “Hepatitis C Inhibitor Peptide Analogs” (priority 2005, published 2008).

System: hepatitis C virus
Conditions: two day clinical trial, patients infected with the hepatitis C virus

For COc1ccc2c(O[C@@H]3C[C@H]4C(=O)N[C@]5(C(=O)O)C[C@H]5/C=C\CCCCC[C@H](NC(=O)OC5CCCC5)C(=O)N4C3)cc(-c3csc(NC(C)C)n3)nc2c1 [BILN 2061], the “reduction of viral loads” value is given as “effective in rapidly reducing viral loads”.
